Reference: patent US7655654B2, “Farnesyl transferase inhibiting tricyclic quinazoline derivatives substituted with carbon-linked imidazoles or triazoles” (Janssen Pharmaceutica NV, priority 2002, dated 2010)

Key:
[1] = biological target: farnesyl protein transferase (Homo sapiens, UniProt P49354+P49356); experiment: In vitro assay for inhibition of farnesyl protein transferase; assay type: biochemical; details: for inhibition at 0.1 µM / % of inhibition at 10^−7 M: at 10^−7 M; for IC50 / Enzyme activity pIC50: negative log value of the IC50-value; for IC50: read-out: Enzyme activity pIC50 (converted)
Method: Example C.1: “In Vitro Assay for Inhibition of Farnesyl Protein Transferase”:
An in vitro assay for inhibition of farnesyl transferase was performed essentially as described in WO 98/40383, pages 33-34. Herein the effects of test compounds are expressed as pIC50 (the negative log value of the IC50-value) and as % of inhibition at 10^−7 M (see Table F-2)

`CN1c2ccc(C(O)(c3ccc(I)cc3)c3cncn3C)cc2C(c2cccc(Cl)c2)n2nnnc21` (mixture of isomers) [Compound 21] showed a melting point of 228 °C, an inhibition at 0.1 µM [1] of 78% and an IC50 [1] of 0.0191 µM.
For `COc1ccc(C(O)(c2ccc3c(c2)C(c2cccc(Cl)c2)n2nnnc2N3)c2cncn2C)cc1` (single isomer, unassigned) [Compound 8], the melting point was 176 °C, the “% of inhibition at 10^−7 M” value [1] was 88% and the IC50 [1] was 0.0124 µM.
Work on `COc1ccc(C(c2ccc3c(c2)C(c2cccc(Cl)c2)n2nnnc2N3C)c2cncn2C)cc1` (mixture of isomers) [Compound 20] yielded a melting point of 108 °C, an inhibition at 0.1 µM [1] of 91% and an IC50 [1] of 0.0092 µM.
For `Cn1cncc1[C@@](N)(c1ccc(Cl)cc1)c1ccc2c(c1)C(c1cccc(Cl)c1)n1nnnc1N2` (single isomer, unassigned) [Compound 11], the melting point was 242 °C, the inhibition at 0.1 µM [1] was 46% and the IC50 [1] was greater than 0.1 µM.
In the case of `COc1ccc(C(O)(c2ccc3c(c2)C(c2cccc(Cl)c2)n2nnnc2N3Cc2ccc(C#N)cc2)c2cncn2C)cc1` (mixture of isomers) [Compound 14], the melting point is reported as 164 °C, the inhibition at 0.1 µM [1] is reported as 74% and the IC50 [1] is reported as 0.0186 µM.
In the case of `CCOC(c1ccc(Cl)cc1)(c1ccc2c(c1)C(c1cccc(Cl)c1)n1nnnc1N2)c1cncn1C` (stereo not drawn) [Compound 10], the inhibition at 0.1 µM [1] is reported as 43% and the IC50 [1] is reported as greater than 0.1 µM.
For `COc1ccc(C(O)(c2ccc3c(c2)C(c2cccc(Cl)c2)n2nnnc2N3)c2cncn2C)cc1` (single isomer, unassigned) [Compound 7], the melting point was greater than 260 °C, the “% of inhibition at 10^−7 M” value [1] was 64% and the IC50 [1] was less than 0.1 µM.
`CN1c2ccc(C(O)(c3ccc(Cl)cc3)c3cncn3C)cc2C(c2cccc(Cl)c2)n2nnnc21` (mixture of isomers) [Compound 19] showed an inhibition at 0.1 µM [1] of 92% and an IC50 [1] of 0.00971 µM.
`Cn1cncc1C(O)(c1ccc(F)cc1)c1ccc2c(c1)C(c1cccc(Cl)c1)n1nnnc1N2` (stereo not drawn) [Compound 2, 9-(3-chlorophenyl)-α-(4-fluorophenyl)4,9-dihydro-α-(1-methyl-1H-imidazol-5-yl)-tetrazolo[5,1-b]quinazoline-7-methanol] showed a melting point of 180 °C, an inhibition at 0.1 µM [1] of 96% and an IC50 [1] of 0.00177 µM.
In the case of `Cc1ccc(C(N)(c2ccc3c(c2)C(c2cccc(Cl)c2)n2nnnc2N3)c2cncn2C)cc1` (single isomer, unassigned) [Compound 4, 9-(3-chlorophenyl)-4,9-dihydro-α-(1-methyl-1H-imidazol-5-yl)-α-(4-methylphenyl)-tetrazolo[5,1-b]quinazoline-7-methanamine], the “% of inhibition at 10^−7 M” value [1] is reported as 74% and the IC50 [1] is reported as 0.0346 µM.
In the case of `Cn1cncc1C(O)(c1ccc(Cl)cc1)c1ccc2c(c1)C(c1cccc(Cl)c1)n1nnnc1N2` (stereo not drawn) [Compound 1, 9-(3-chlorophenyl)-α-(4-chlorophenyl)4,9-dihydro-α-(1-methyl-1H-imidazol-5-yl)-tetrazolo[5,1-b]quinazoline-7-methanol], the melting point is reported as greater than 260 °C, the inhibition at 0.1 µM [1] is reported as 81% and the IC50 [1] is reported as 0.0254 µM.
For `COc1ccc(C(O)(c2ccc3c(c2)C(c2cccc(Cl)c2)n2nnnc2N3CC2CC2)c2cncn2C)cc1` (stereo not drawn) [Compound 9], the melting point was 121 °C, the inhibition at 0.1 µM [1] was 82% and the IC50 [1] was 0.0206 µM.
In the case of `CN1c2ccc(C(O)(c3ccc(I)cc3)c3nncn3C)cc2C(c2cccc(Cl)c2)n2nnnc21` (mixture of isomers) [Compound 22], the melting point is reported as 181 °C, the inhibition at 0.1 µM [1] is reported as 57% and the IC50 [1] is reported as less than 0.1 µM.
In the case of `Cc1ccc(C(N)(c2ccc3c(c2)C(c2cccc(Cl)c2)n2nnnc2N3)c2cncn2C)cc1` (single isomer, unassigned) [Compound 5, 9-(3-chlorophenyl)-4,9-dihydro-α-(1-methyl-1H-imidazol-5-yl)-α-(4-methylphenyl)-tetrazolo[5,1-b]quinazoline-7-methanamine], the “% of inhibition at 10^−7 M” value [1] is reported as 99% and the IC50 [1] is reported as less than 0.001 µM.
With `Cn1cncc1[C@](N)(c1ccc(Cl)cc1)c1ccc2c(c1)C(c1cccc(Cl)c1)n1nnnc1N2` (stereo partly drawn) [Compound 24] the melting point was 183 °C, the “% of inhibition at 10^−7 M” value [1] was 88% and the IC50 [1] was 0.0117 µM.
With `Cn1cncc1C(O)(c1ccc(I)cc1)c1ccc2c(c1)C(c1cccc(Cl)c1)n1nnnc1N2` (mixture of isomers) [Compound 18] the melting point was 225 °C, the inhibition at 0.1 µM [1] was 76% and the IC50 [1] was 0.0299 µM.
With `COc1ccc(C(O)(c2ccc3c(c2)C(c2cccc(Cl)c2)n2nnnc2N3)c2cncn2C)cc1` (stereo not drawn) [Compound 3, 9-(3-chlorophenyl)-4,9-dihydro-α-(4-methoxyphenyl)-α-(1-methyl-1H-imidazol-5-yl)-tetrazolo[5,1-]quinazoline-7-methanol] the inhibition at 0.1 µM [1] was 80% and the IC50 [1] was 0.0233 µM.
`CC(C)OC(=O)c1ccc(C(O)(c2ccc3c(c2)C(c2cccc(Cl)c2)n2nnnc2N3C)c2cncn2C)cc1` (mixture of isomers) [Compound 25] showed a melting point of 165 °C, an inhibition at 0.1 µM [1] of 66% and an IC50 [1] of less than 0.1 µM.
Work on `Cn1cnnc1C(O)(c1ccc(I)cc1)c1ccc2c(c1)C(c1cccc(Cl)c1)n1nnnc1N2` (mixture of isomers) [Compound 16] yielded a melting point of 226 °C, an inhibition at 0.1 µM [1] of 45% and an IC50 [1] greater than 0.1 µM.
With `COc1ccc(C(O)(c2ccc3c(c2)C(c2cccc(Cl)c2)n2nnnc2N3C)c2cncn2C)cc1` (mixture of isomers) [Compound 6] the “% of inhibition at 10^−7 M” value [1] was 90% and the IC50 [1] was 0.0141 µM.
With `Cn1cnnc1C(O)(c1ccc(I)cc1)c1ccc2c(c1)C(c1cccc(Cl)c1)n1nnnc1N2` (stereo not drawn) [Compound 17] the melting point was 195 °C, the “% of inhibition at 10^−7 M” value [1] was 42% and the “Enzyme activity pIC50” value [1] was less than 7.
Compound `Cn1cncc1[C@](N)(c1ccc(Cl)cc1)c1ccc2c(c1)C(c1cccc(Cl)c1)n1nnnc1N2` (stereo partly drawn) [Compound 23] has a melting point greater than 250 °C, an inhibition at 0.1 µM [1] of 98% and an IC50 [1] of 0.00254 µM.
With `COc1ccc(C(O)(c2ccc3c(c2)C(c2cccc(Cl)c2)n2nnnc2N3C)c2cncn2C)cc1` (mixture of isomers) [Compound 15] the melting point was 144 °C, the inhibition at 0.1 µM [1] was 88% and the IC50 [1] was 0.0166 µM.
In the case of `CCOC(=O)CN1c2ccc(C(O)(c3ccc(OC)cc3)c3cncn3C)cc2C(c2cccc(Cl)c2)n2nnnc21` (mixture of isomers) [Compound 13], the melting point is reported as 126 °C, the inhibition at 0.1 µM [1] is reported as 80% and the IC50 [1] is reported as 0.0254 µM.
In the case of `Cn1cncc1[C@@](N)(c1ccc(Cl)cc1)c1ccc2c(c1)C(c1cccc(Cl)c1)n1nnnc1N2` (single isomer, unassigned) [Compound 12], the melting point is reported as 162 °C, the “% of inhibition at 10^−7 M” value [1] is reported as 42% and the “Enzyme activity pIC50” value [1] is reported as less than 7.
